Patent US10123993B2, “Cyclic ureas as inhibitors of rock” (BRISTOL-MYERS SQUIBB COMPANY, priority 2015, dated 2018)

Biological target: ROCK2 (Homo sapiens, UniProt O75116)
Experiment: ROCK2 kinase inhibition assay (Caliper LABCHIP, FITC peptide substrate)
Assay type: biochemical
Settings: 5 μM ATP, 1.5 μM peptide substrate; value ranges
In short: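 Rho kinase with 5 μM ATP and 1.5 μM FITC-AHA-AKRRRLSSLRA-OH peptide in HEPES pH 7.5, 20 mM MgCl2, 0.015% Brij-35, 4 mM DTT, DMSO <2%. EDTA stop; phospho and non-phospho peptide separated on LabChip. IC50 from dose-response fit.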

ROCK2, sequence (O75116 whole entry, species assumed): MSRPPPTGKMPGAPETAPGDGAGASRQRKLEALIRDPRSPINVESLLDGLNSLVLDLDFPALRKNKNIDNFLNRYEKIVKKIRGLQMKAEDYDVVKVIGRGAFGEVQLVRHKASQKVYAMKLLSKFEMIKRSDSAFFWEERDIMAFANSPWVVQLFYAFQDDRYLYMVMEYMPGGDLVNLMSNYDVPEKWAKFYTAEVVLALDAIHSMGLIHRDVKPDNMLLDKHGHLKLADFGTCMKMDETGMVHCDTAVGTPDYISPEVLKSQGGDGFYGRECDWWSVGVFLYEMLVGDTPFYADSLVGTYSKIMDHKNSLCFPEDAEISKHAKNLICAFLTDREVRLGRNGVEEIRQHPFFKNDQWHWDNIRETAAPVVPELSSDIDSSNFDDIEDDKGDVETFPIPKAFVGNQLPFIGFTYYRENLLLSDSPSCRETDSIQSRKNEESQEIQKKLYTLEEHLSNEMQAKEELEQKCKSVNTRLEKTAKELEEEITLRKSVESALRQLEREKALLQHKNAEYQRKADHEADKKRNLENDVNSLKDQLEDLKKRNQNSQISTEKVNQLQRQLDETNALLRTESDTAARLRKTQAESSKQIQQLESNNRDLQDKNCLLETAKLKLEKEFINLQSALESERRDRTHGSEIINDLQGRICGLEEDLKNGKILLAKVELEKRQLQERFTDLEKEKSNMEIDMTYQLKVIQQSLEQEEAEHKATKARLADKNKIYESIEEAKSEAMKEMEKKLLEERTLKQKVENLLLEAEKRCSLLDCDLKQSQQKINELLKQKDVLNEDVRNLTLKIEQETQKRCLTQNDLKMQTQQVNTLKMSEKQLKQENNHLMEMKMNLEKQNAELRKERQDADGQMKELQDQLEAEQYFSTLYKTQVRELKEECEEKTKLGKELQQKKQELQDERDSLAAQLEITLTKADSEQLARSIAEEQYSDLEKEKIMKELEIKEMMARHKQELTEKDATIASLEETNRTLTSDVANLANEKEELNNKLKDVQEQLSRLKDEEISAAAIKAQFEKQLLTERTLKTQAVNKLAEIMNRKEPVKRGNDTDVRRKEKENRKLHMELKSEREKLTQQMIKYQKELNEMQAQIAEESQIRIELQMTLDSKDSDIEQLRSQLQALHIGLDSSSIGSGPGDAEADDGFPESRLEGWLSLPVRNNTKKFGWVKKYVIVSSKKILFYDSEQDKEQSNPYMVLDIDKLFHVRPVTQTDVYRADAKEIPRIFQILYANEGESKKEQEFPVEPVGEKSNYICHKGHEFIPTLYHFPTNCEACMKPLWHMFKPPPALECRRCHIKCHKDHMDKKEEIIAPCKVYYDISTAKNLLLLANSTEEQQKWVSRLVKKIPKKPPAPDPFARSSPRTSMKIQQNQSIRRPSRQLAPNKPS

Row | IC50 [nM] | Compound
1 | 20.1 to 200 | Cc1ccc(F)cc1Cn1ccn(-c2ccc(-c3cn[nH]c3)cc2)c1=O [Example 404, 1-(4-(1H-pyrazol-4-yl)phenyl)-3-(5-fluoro-2-methylbenzyl)-1H-imidazol-2(3H)-one]
2 | 20.1 to 200 | COc1c(F)cccc1Cn1ccn(-c2ccc(-c3cn[nH]c3)cc2)c1=O [Example 405, 1-(4-(1H-pyrazol-4-yl)phenyl)-3-(3-fluoro-2-methoxybenzyl)-1H-imidazol-2(3H)-one]
3 | 20.1 to 200 | O=c1n(Cc2cccc(F)c2F)ccn1-c1ccc(-c2cn[nH]c2)cc1 [Example 406, 1-(4-(1H-pyrazol-4-yl)phenyl)-3-(2,3-difluorobenzyl)-1H-imidazol-2(3H)-one]
4 | 20.1 to 200 | COc1cc(Cn2ccn(-c3ccc(-c4cn[nH]c4)cc3)c2=O)ccc1F [Example 407, 1-(4-(1H-pyrazol-4-yl)phenyl)-3-(4-fluoro-3-methoxybenzyl)-1H-imidazol-2(3H)-one]
5 | 20.1 to 200 | O=c1n(Cc2cc(F)ccc2F)ccn1-c1ccc(-c2cn[nH]c2)cc1 [Example 408, 1-(4-(1H-pyrazol-4-yl)phenyl)-3-(2,5-difluorobenzyl)-1H-imidazol-2(3H)-one]
6 | 20.1 to 200 | O=c1n(Cc2ccc(F)cc2F)ccn1-c1ccc(-c2cn[nH]c2)cc1 [Example 409, 1-(4-(1H-pyrazol-4-yl)phenyl)-3-(2,4-difluorobenzyl)-1H-imidazol-2(3H)-one]
7 | 20.1 to 200 | O=c1n(Cc2cccnc2)ccn1-c1ccc(-c2cn[nH]c2)cc1 [Example 410, 1-(4-(1H-pyrazol-4-yl)phenyl)-3-(pyridin-3-ylmethyl)-1H-imidazol-2(3H)-one]
8 | 200 to 2000 | COc1cc(F)ccc1Cn1ccn(-c2ccc(-c3cn[nH]c3)cc2)c1=O [Example 412, 1-(4-(1H-pyrazol-4-yl)phenyl)-3-(4-fluoro-2-methoxybenzyl)-1H-imidazol-2(3H)-one]
9 | < 2 | COc1nc(-n2ccn(Cc3cccc(F)c3)c2=O)ccc1-c1cn[nH]c1 [Example 413, 1-(3-fluorobenzyl)-3-(6-methoxy-5-(1H-pyrazol-4-yl)pyridin-2-yl)-1H-imidazol-2(3H)-one]
10 | 20.1 to 200 | COc1nc(-n2ccn(Cc3ccc(F)cc3F)c2=O)ccc1-c1cn[nH]c1 [Example 414, 1-(2,4-difluorobenzyl)-3-(6-methoxy-5-(1H-pyrazol-4-yl)pyridin-2-yl)-1H-imidazol-2(3H)-one]
11 | 2.1 to 20 | COc1nc(-n2ccn(Cc3cc(F)ccc3F)c2=O)ccc1-c1cn[nH]c1 [Example 415, 1-(2,5-difluorobenzyl)-3-(6-methoxy-5-(1H-pyrazol-4-yl)pyridin-2-yl)-1H-imidazol-2(3H)-one]
12 | 2.1 to 20 | COc1nc(-n2ccn(Cc3cccc(F)c3OC)c2=O)ccc1-c1cn[nH]c1 [Example 416, 1-(3-fluoro-2-methoxybenzyl)-3-(6-methoxy-5-(1H-pyrazol-4-yl)pyridin-2-yl)-1H-imidazol-2(3H)-one]
13 | 2.1 to 20 | COc1nc(-n2ccn(Cc3cccnc3)c2=O)ccc1-c1cn[nH]c1 [Example 417, 1-(6-methoxy-5-(1H-pyrazol-4-yl)pyridin-2-yl)-3-(pyridin-3-ylmethyl)-1H-imidazol-2(3H)-one]
14 | 20.1 to 200 | COc1nc(-n2ccn(CC3CCCO3)c2=O)ccc1-c1cn[nH]c1 (stereo not shown) [Example 418, 1-(6-methoxy-5-(1H-pyrazol-4-yl)pyridin-2-yl)-3-((tetrahydrofuran-2-yl)methyl)-1H-imidazol-2(3H)-one]
15 | < 2 | COc1nc(-n2ccn(Cc3cccc(OC(F)F)c3)c2=O)ccc1-c1cn[nH]c1 [Example 419, 1-(3-(difluoromethoxy)benzyl)-3-(6-methoxy-5-(1H-pyrazol-4-yl)pyridin-2-yl)-1H-imidazol-2(3H)-one]
16 | 20.1 to 200 | COc1nc(-n2ccn(CC3CCCCC3)c2=O)ccc1-c1cn[nH]c1 [Example 420, 1-(cyclohexylmethyl)-3-(6-methoxy-5-(1H-pyrazol-4-yl)pyridin-2-yl)-1H-imidazol-2(3H)-one]
17 | 2.1 to 20 | COc1cccc(CN2CCN(c3cc(OC)c(-c4cn[nH]c4)cn3)C2=O)c1 [Example 423, 1-(4-Methoxy-5-(1H-pyrazol-4-yl)pyridin-2-yl)-3-(3-methoxybenzyl)imidazolidin-2-one]
18 | 2.1 to 20 | COc1ccc(F)cc1CN1CCN(c2ccc(-c3cn[nH]c3)c(F)c2)C1=O [Example 424, 1-(5-fluoro-2-methoxybenzyl)-3-(3-fluoro-4-(1H-pyrazol-4-yl)phenyl)imidazolidin-2-one]
19 | < 2 | COc1cc(F)cc(CN2CCN(c3ccc(-c4cn[nH]c4)c(F)c3)C2=O)c1 [Example 425, 1-(3-fluoro-4-(1H-pyrazol-4-yl)phenyl)-3-(3-fluoro-5-methoxybenzyl)imidazolidin-2-one]

Row | IC50 [nM] | Compound
20 | 2.1 to 20 | COc1ccc(F)c(CN2CCN(c3ccc(-c4cn[nH]c4)c(F)c3)C2=O)c1 [Example 426, 1-(3-fluoro-4-(1H-pyrazol-4-yl)phenyl)-3-(2-fluoro-5-methoxybenzyl)imidazolidin-2-one]
21 | 20.1 to 200 | COc1cccc(CN2CCN(c3ccc(-c4cn[nH]c4)cn3)C2=O)c1F [Example 427, 1-(5-(1H-pyrazol-4-yl)pyridin-2-yl)-3-(2-fluoro-3-methoxybenzyl)imidazolidin-2-one]
22 | 2.1 to 20 | COc1cc(F)cc(CN2CCN(c3ccc(-c4cn[nH]c4)cn3)C2=O)c1 [Example 428, 1-(5-(1H-pyrazol-4-yl)pyridin-2-yl)-3-(3-fluoro-5-methoxybenzyl)imidazolidin-2-one]
23 | 2.1 to 20 | COc1cc(CN2CCN(c3ccc(-c4cn[nH]c4)cn3)C2=O)ccc1F [Example 429, 1-(5-(1H-pyrazol-4-yl)pyridin-2-yl)-3-(4-fluoro-3-methoxybenzyl)imidazolidin-2-one]
24 | 2.1 to 20 | COc1cccc(CN2CCN(c3ccc(-c4cn[nH]c4)c(F)c3)C2=O)c1 [Example 430, 1-(3-fluoro-4-(1H-pyrazol-4-yl)phenyl)-3-(3-methoxybenzyl)imidazolidin-2-one]
25 | 20.1 to 200 | COc1cccc(F)c1CN1CCN(c2ccc(-c3cn[nH]c3)c(F)c2)C1=O [Example 431, 1-(3-fluoro-4-(1H-pyrazol-4-yl)phenyl)-3-(2-fluoro-6-methoxybenzyl)imidazolidin-2-one]
26 | 20.1 to 200 | COc1ccc(CN2CCN(c3ccc(-c4cn[nH]c4)c(F)c3)C2=O)cc1F [Example 432, 1-(3-fluoro-4-(1H-pyrazol-4-yl)phenyl)-3-(3-fluoro-4-methoxybenzyl)imidazolidin-2-one]
27 | 20.1 to 200 | COc1cccc(CN2CCN(c3ccc(-c4cn[nH]c4)c(F)c3)C2=O)c1F [Example 433, 1-(2-fluoro-3-methoxybenzyl)-3-(3-fluoro-4-(1H-pyrazol-4-yl)phenyl)imidazolidin-2-one]
28 | 2.1 to 20 | COc1cc(CN2CCN(c3ccc(-c4cn[nH]c4)c(F)c3)C2=O)ccc1F [Example 434, 1-(4-fluoro-3-methoxybenzyl)-3-(3-fluoro-4-(1H-pyrazol-4-yl)phenyl)imidazolidin-2-one]
29 | 20.1 to 200 | COc1cc(F)cc(CN2CCN(c3ccc(-c4cn[nH]c4)nc3)C2=O)c1 [Example 437, 1-(6-(1H-pyrazol-4-yl)pyridin-3-yl)-3-(3-fluoro-5-methoxybenzyl)imidazolidin-2-one]
30 | 20.1 to 200 | O=C1N(Cc2cccc(OCC3CC3)c2)CCN1c1ccc(-c2cn[nH]c2)cn1 [Example 438, 1-(5-(1H-pyrazol-4-yl)pyridin-2-yl)-3-(3-(cyclopropylmethoxy)benzyl)imidazolidin-2-one]
31 | 2.1 to 20 | COc1cccc(CN2CCN(c3ccc(-c4cn[nH]c4)nc3)C2=O)c1 [Example 439, 1-(6-(1H-pyrazol-4-yl)pyridin-3-yl)-3-(3-methoxybenzyl)imidazolidin-2-one]
32 | 20.1 to 200 | COc1cc(CN2CCN(c3ccc(-c4cn[nH]c4)nc3)C2=O)ccc1F [Example 440, 1-(6-(1H-pyrazol-4-yl)pyridin-3-yl)-3-(4-fluoro-3-methoxybenzyl)imidazolidin-2-one]
33 | 200 to 2000 | O=C1N(Cc2cccc(OCC3CC3)c2)CCN1c1ccc(-c2cn[nH]c2)nc1 [Example 441, 1-(6-(1H-pyrazol-4-yl)pyridin-3-yl)-3-(3-(cyclopropylmethoxy)benzyl)imidazolidin-2-one]
34 | 200 to 2000 | COc1cccc(C(CO)N2CCN(c3ccc(-c4cn[nH]c4)cn3)C2=O)c1 (stereo not shown) [Example 442, 1-(5-(1H-pyrazol-4-yl)pyridin-2-yl)-3-(2-hydroxy-1-(3-methoxyphenyl)ethyl)imidazolidin-2-one]
35 | 2.1 to 20 | COc1cccc(CN2CCN(c3ccc(-c4cn[nH]c4)cn3)C2=O)c1 [Example 446, 1-(5-(1H-pyrazol-4-yl)pyridin-2-yl)-3-(3-methoxybenzyl)imidazolidin-2-one]
36 | 20.1 to 200 | COc1cccc(CN2CCN(c3cc(F)c(-c4cn[nH]c4)cc3F)C2=O)c1 [Example 447, 1-(2,5-difluoro-4-(1H-pyrazol-4-yl)phenyl)-3-(3-methoxybenzyl)imidazolidin-2-one]
37 | 20.1 to 200 | COc1cc(F)cc(CN2CCN(c3cc(F)c(-c4cn[nH]c4)cc3F)C2=O)c1 [Example 448, 1-(2,5-difluoro-4-(1H-pyrazol-4-yl)phenyl)-3-(3-fluoro-5-methoxybenzyl)imidazolidin-2-one]
38 | 20.1 to 200 | COc1cc(CN2CCN(c3cc(F)c(-c4cn[nH]c4)cc3F)C2=O)ccc1F [Example 449, 1-(2,5-difluoro-4-(1H-pyrazol-4-yl)phenyl)-3-(4-fluoro-3-methobenzyl)imidazolidin-2-one]

Row | Compound | IC50 [nM]
39 | CC(C)COc1cccc(CN2CCN(c3ccc(-c4cn[nH]c4)c(F)c3)C2=O)c1 [Example 443, 1-(3-fluoro-4-(1H-pyrazol-4-yl)phenyl)-3-(3-isobutoxybenzyl)imidazolidin-2-one] | 2.1 to 20
40 | CC(C)COc1cccc(CN2CCN(c3ccc(-c4cn[nH]c4)cn3)C2=O)c1 [Example 444, 1-(5-(1H-pyrazol-4-yl)pyridin-2-yl)-3-(3-isobutoxybenzyl)imidazolidin-2-one] | 20.1 to 200
